Measurements from patent publication US20260125382A1, “COMPOUNDS FOR INHIBITING OR DEGRADING CDK2 AND/OR CDK9 AND MEDICINAL USE THEREOF” (KOREA RESEARCH INSTITUTE OF CHEMICAL TECHNOLOGY, priority 2022, published 2026).

Tests used:
CDK2 = molecular target: T1, CDK2 (Homo sapiens, UniProt P24941); assay: CDK protein degradation activity (Western blotting), CDK2; type: cell-based; conditions: MDA-MB-231 cells, 16 hours, Western blot
T1 construct: endogenous in cells; host or cells: MDA-MB-231
How it was run: (§1)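 Protein levels were read by Western blot densitometry, tubulin serving as loading reference. Beforehand, MDA-MB-231 cells had been exposed for 16 hours to 100 nM, 1 μM or 10 μM compound, DMSO as control.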

CDK9 = molecular target: T2, CDK9 (Homo sapiens, UniProt P50750); assay: CDK protein degradation activity (Western blotting), CDK9; type: cell-based; conditions: MDA-MB-231 cells, 16 hours, Western blot
T2 construct: endogenous in cells; host or cells: MDA-MB-231
How it was run: as §1

T2 sequence (P50750 whole entry): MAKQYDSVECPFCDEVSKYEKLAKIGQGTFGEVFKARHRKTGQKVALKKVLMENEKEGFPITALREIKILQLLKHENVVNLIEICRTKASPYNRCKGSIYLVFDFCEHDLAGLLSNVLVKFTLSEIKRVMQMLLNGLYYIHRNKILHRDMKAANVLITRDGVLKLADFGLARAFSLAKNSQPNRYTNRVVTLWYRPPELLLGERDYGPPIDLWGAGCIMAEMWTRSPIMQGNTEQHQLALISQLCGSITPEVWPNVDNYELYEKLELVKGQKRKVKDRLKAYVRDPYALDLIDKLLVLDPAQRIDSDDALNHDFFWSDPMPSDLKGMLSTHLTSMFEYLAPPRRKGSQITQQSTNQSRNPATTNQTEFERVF

Compound	Enzyme degradation CDK2 (% remaining) @ 0.1 μM (CDK2)	Enzyme degradation CDK2 (% remaining) @ 1 μM (CDK2)	Enzyme degradation CDK2 (% remaining) @ 10 μM (CDK2)	Enzyme degradation CDK9 (% remaining) @ 0.1 μM (CDK9)	Enzyme degradation CDK9 (% remaining) @ 1 μM (CDK9)	Enzyme degradation CDK9 (% remaining) @ 10 μM (CDK9)
O=C1CC[C@H](N2C(=O)c3ccc(N4CC(C(=O)N5CCC(CN6CCN(c7ccc(Nc8ncnc9c8ncn9C8CC(NC(=O)c9cccc(F)n9)C8)cc7)CC6)CC5)C4)cc3C2=O)C(=O)N1 (some centres unmarked) [Compound 466, N-((1s,3s)-3-(6-((4-(4-((1-(1-(2-(2,6-dioxopiperidin-3-yl)-1,3-dioxoisoindolin-5-yl)azetidin-3-carbonyl)piperidin-4-yl)methyl)piperazin-1-yl)phenyl)amino)-9H-purin-9-yl)cyclobutyl)-6-fluoropicolinamide]	30%	20%	20%	0/0/0%	0/0/0%	0/0/0%
O=C1CC[C@H](N2C(=O)c3ccc(N4CCC(C(=O)N5CCC(CN6CCN(c7ccc(Nc8ncnc9c8ncn9C8CC(NC(=O)c9cccc(F)n9)C8)cc7)CC6)CC5)CC4)cc3C2=O)C(=O)N1 (some centres unmarked) [Compound 467, N-((1s,3s)-3-(6-((4-(4-((1-(1-(2-(2,6-dioxopiperidin-3-yl)-1,3-dioxoisoindolin-5-yl)piperidin-4-carbonyl)piperidin-4-yl)methyl)piperazin-1-yl)phenyl)amino)-9H-purin-9-yl)cyclobutyl)-6-fluoropicolinamide]	40%	30%	30%	0/0/0%	0/0/0%	0/0/0%
O=C1CC[C@H](N2C(=O)c3cc(F)c(N4CCC(C(=O)N5CCC(CN6CCN(c7ccc(Nc8ncnc9c8ncn9C8CC(NC(=O)c9cccc(F)n9)C8)cc7)CC6)CC5)CC4)cc3C2=O)C(=O)N1 (some centres unmarked) [Compound 468, N-((1s,3s)-3-(6-((4-(4-((1-(1-(2-(2,6-dioxopiperidin-3-yl)-6-fluoro-1,3-dioxoisoindolin-5-yl)piperidin-4-carbonyl)piperidin-4-yl)methyl)piperazin-1-yl)phenyl)amino)-9H-purin-9-yl)cyclobutyl)-6-fluoropicolinamide]	50%	40%	40%	0/0/0%	0/0/0%	0/0/0%
O=C1CC[C@H](N2C(=O)c3ccc(N4CC(C(=O)N5CCC(CN6CCN(c7ccc(Nc8ncnc9c8ncn9[C@H]8C[C@@H](NC(=O)c9cccc(C(F)(F)F)n9)C8)cc7)CC6)CC5)C4)cc3C2=O)C(=O)N1 [Compound 469, N-((1s,3s)-3-(6-((4-(4-((1-(1-(2-(2,6-dioxopiperidin-3-yl)-1,3-dioxoisoindolin-5-yl)azetidin-3-carbonyl)piperidin-4-yl)methyl)piperazin-1-yl)phenyl)amino)-9H-purin-9-yl)cyclobutyl)-6-(trifluoromethyl)picolinamide]	40/40/40%	40/40/40%	40/40/40%	0/0/0%	0/0/0%	0/0/0%
O=C1CCC(N2C(=O)c3ccc(N4CCC(C(=O)N5CCC(CN6CCN(c7ccc(Nc8ncnc9c8ncn9[C@H]8C[C@@H](NC(=O)c9cccc(C(F)(F)F)n9)C8)cc7)CC6)CC5)CC4)cc3C2=O)C(=O)N1 (some centres unmarked) [Compound 470, N-((1s,3s)-3-(6-((4-(4-((1-(1-(2-(2,6-dioxopiperidin-3-yl)-1,3-dioxoisoindolin-5-yl)piperidin-4-carbonyl)piperidin-4-yl)methyl)piperazin-1-yl)phenyl)amino)-9H-purin-9-yl)cyclobutyl)-6-(trifluoromethyl)picolinamide]	30/30/30%	30/30/30%	30/30/30%	0/0/0%	0/0/0%	0/0/0%
O=C1CC[C@H](N2C(=O)c3cc(F)c(N4CCC(C(=O)N5CCC(CN6CCN(c7ccc(Nc8ncnc9c8ncn9[C@H]8C[C@@H](NC(=O)c9cccc(C(F)(F)F)n9)C8)cc7)CC6)CC5)CC4)cc3C2=O)C(=O)N1 [Compound 471, N-((1s,3s)-3-(6-((4-(4-((1-(1-(2-(2,6-dioxopiperidin-3-yl)-6-fluoro-1,3-dioxoisoindolin-5-yl)piperidin-4-carbonyl)piperidin-4-yl)methyl)piperazin-1-yl)phenyl)amino)-9H-purin-9-yl)cyclobutyl)-6-(trifluoromethyl)picolinamide]	50%	40%	40%	0/0/0%	0/0/0%	0/0/0%

Now from value to molecule:

Enzyme degradation CDK2 (% remaining) @ 0.1 μM (CDK2)	Enzyme degradation CDK2 (% remaining) @ 1 μM (CDK2)	Enzyme degradation CDK2 (% remaining) @ 10 μM (CDK2)	Enzyme degradation CDK9 (% remaining) @ 0.1 μM (CDK9)	Enzyme degradation CDK9 (% remaining) @ 1 μM (CDK9)	Enzyme degradation CDK9 (% remaining) @ 10 μM (CDK9)	Compound
40%	40%	50%	0/0/0%	0/0/0%	0/0/0%	N#Cc1cccc(C(=O)NC2CC(n3cnc4c(Nc5ccc(N6CCN(CC7CCN(C(=O)C8CCN(c9cc%10c(cc9F)C(=O)N([C@H]9CCC(=O)NC9=O)C%10=O)CC8)CC7)CC6)cc5)ncnc43)C2)n1 (some centres unmarked) [Compound 472, 6-cyano-N-((1s,3s)-3-(6-((4-(4-((1-(1-(2-(2,6-dioxopiperidin-3-yl)-6-fluoro-1,3-dioxoisoindolin-5-yl)piperidin-4-carbonyl)piperidin-4-yl)methyl)piperazin-1-yl)phenyl)amino)-9H-purin-9-yl)cyclobutyl)picolinamide]
20%	30%	30%	10%	0%	0%	O=C1CCC(N2C(=O)c3ccc(N4CCC(C(=O)N5CCN(CC6CCN(c7ccc(Nc8ncnc9c8ncn9[C@H]8C[C@@H](NC(=O)c9c(Cl)cccc9Cl)C8)cc7)CC6)CC5)CC4)cc3C2=O)C(=O)N1 (some centres unmarked) [Compound 474, 2,6-dichloro-N-((1s,3s)-3-(6-((4-(4-((4-(1-(2-(2,6-dioxopiperidin-3-yl)-1,3-dioxoisoindolin-5-yl)piperidin-4-carbonyl)piperazin-1-yl)methyl)piperidin-1-yl)phenyl)amino)-9H-purin-9-yl)cyclobutyl)benzamide]
20/20/20%	20/20/20%	20/20/20%	0/0/0%	0/0/0%	0/0/0%	O=C1CC[C@H](N2C(=O)c3cc(F)c(N4CCC(C(=O)N5CCN(CC6CCN(c7ccc(Nc8ncnc9c8ncn9[C@H]8C[C@@H](NC(=O)c9c(Cl)cccc9Cl)C8)cc7)CC6)CC5)CC4)cc3C2=O)C(=O)N1 [Compound 475, 2,6-dichloro-N-((1s,3s)-3-(6-((4-(4-((4-(1-(2-(2,6-dioxopiperidin-3-yl)-6-fluoro-1,3-dioxoisoindolin-5-yl)piperidin-4-carbonyl)piperazin-1-yl)methyl)piperidin-1-yl)phenyl)amino)-9H-purin-9-yl)cyclobutyl)benzamide]
70%		60%	50%	10%	10%	Cc1cccc(C(=O)N[C@H]2C[C@@H](n3cnc4c(Nc5ccc(N6CCN(CC7CCN(C(=O)C8CCN(c9cc%10c(cc9F)C(=O)N([C@H]9CCC(=O)NC9=O)C%10=O)CC8)CC7)CC6)cc5)ncnc43)C2)n1 [Compound 476, N-((1s,3s)-3-(6-((4-(4-((1-(1-(2-(2,6-dioxopiperidin-3-yl)-6-fluoro-1,3-dioxoisoindolin-5-yl)piperidin-4-carbonyl)piperidin-4-yl)methyl)piperazin-1-yl)phenyl)amino)-9H-purin-9-yl)cyclobutyl)-6-methylpicolinamide]
20/20/20%	20/20/20%	20/20/20%	30/30/30%	30/30/30%	30/30/30%	Cc1cccc(C(=O)NC2CC(n3cnc4c(Nc5ccc(N6CCN(CC7CCN(C(=O)C8CCN(c9cc%10c(cc9F)C(=O)N([C@H]9CCC(=O)NC9=O)C%10=O)CC8)CC7)CC6)cc5C)ncnc43)C2)n1 (some centres unmarked) [Compound 477, N-((1s,3s)-3-(6-((4-(4-((1-(1-(2-(2,6-dioxopiperidin-3-yl)-6-fluoro-1,3-dioxoisoindolin-5-yl)piperidin-4-carbonyl)piperidin-4-yl)methyl)piperazin-1-yl)-2-methylphenyl)amino)-9H-purin-9-yl)cyclobutyl)-6-methylpicolinamide]
10%	20%	20%	20/20/20%	20/20/20%	20/20/20%	Cc1cccc(C(=O)NC2CC(n3cnc4c(Nc5ccc(N6CCN(CC7CCN(c8ccc9nnn([C@H]%10CCC(=O)NC%10=O)c(=O)c9c8)CC7)CC6)cc5C)ncnc43)C2)n1 (some centres unmarked) [Compound 478, N-((1s,3s)-3-(6-((4-(4-((1-(3-(2,6-dioxopiperidin-3-yl)-4-oxo-3,4-dihydrobenzo[d][1,2,3]triazin-6-yl)piperidin-4-yl)methyl)piperazin-1-yl)-2-methylphenyl)amino)-9H-purin-9-yl)cyclobutyl)-6-methylpicolinamide]
